Reference: US9944654B2, “Nargenicin compounds and uses thereof as antibacterial agents” (priority 2014, dated 2018)
Converted amounts (≈) assume the structure as drawn. Read-outs that look alike come from different tables or passages of the source.

What was measured:
[1] = test system: Staphylococcus aureus MB6266 (MRSA COL); experiment: Nargenicin antibacterial assay (MIC), S. aureus; format: cell-based; conditions: * = some reduction of growth versus control at […]; for S. aureus COL (MIC): MHII broth + 50% human serum; for MIC: Staphylococcus aureus, MRSA, read-out: S. aureus COL (MIC), MHII broth + 50% human serum
[2] = biological target: T1, E. coli DnaE (DNA polymerase III α-subunit from Escherichia coli) (Escherichia coli, UniProt P10443); experiment: In vitro DnaE single enzyme assay (E. coli); format: biochemical
T1 construct: EcDnaE (E. coli DnaE residues 1-1160); 6xHis (N); made in house; host or cells: E. coli BL21(DE3)
In short: (§1)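 His-tagged E. coli DnaE (residues 1-1160, 0.8 μg/ml) or S. aureus DnaE (residues 1-1065, 0.05 μg/ml) incubated 30 min at 30° C. with activated calf thymus DNA, 0.025 mM dATP/dGTP/dCTP and 0.011 mM 3H-dTTP in Tris pH 7.5/Mg acetate. TCA-precipitated labelled DNA counted.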

[3] = test system: Pseudomonas aeruginosa MB5890 (CB1101, efflux-deleted); experiment: microbe, parasite or virus in culture; format: cell-based; conditions: * = some reduction of growth versus control at […]; for P. aeruginosa MB5890 efflux-del (MIC): MHII broth; for MIC: Pseudomonas aeruginosa, read-out: P. aeruginosa MB5890 efflux-del (MIC), MHII broth
[4] = test system: Escherichia coli MB5747 (LS 883, tolC); experiment: microbe, parasite or virus in culture; format: cell-based; conditions: * = some reduction of growth versus control at […]; for E. coli LS883 tolC (MIC): MHII broth; for MIC: Escherichia coli, read-out: E. coli LS883 tolC (MIC), MHII broth
[5] = test system: Streptococcus pneumoniae MB6357 (CL 2883); experiment: Nargenicin antibacterial assay (MIC), S. pneumoniae; format: cell-based; conditions: * = some reduction of growth versus control at […]; for S. pneumoniae MB2883 (MIC): Isosensitest broth; for MIC: Streptococcus pneumoniae, read-out: S. pneumoniae MB2883 (MIC), Isosensitest broth
[6] = biological target: T2, S. aureus DnaE (DNA polymerase III α-subunit homolog from Staphylococcus aureus) (Staphylococcus aureus, UniProt Q5HF71); experiment: biochemical; format: biochemical
T2 construct: SaDnaE (S. aureus DnaE residues 1-1065); 6xHis (N); made in house; host or cells: E. coli BL21-AI
T2 sequence (Q5HF71 1-1065): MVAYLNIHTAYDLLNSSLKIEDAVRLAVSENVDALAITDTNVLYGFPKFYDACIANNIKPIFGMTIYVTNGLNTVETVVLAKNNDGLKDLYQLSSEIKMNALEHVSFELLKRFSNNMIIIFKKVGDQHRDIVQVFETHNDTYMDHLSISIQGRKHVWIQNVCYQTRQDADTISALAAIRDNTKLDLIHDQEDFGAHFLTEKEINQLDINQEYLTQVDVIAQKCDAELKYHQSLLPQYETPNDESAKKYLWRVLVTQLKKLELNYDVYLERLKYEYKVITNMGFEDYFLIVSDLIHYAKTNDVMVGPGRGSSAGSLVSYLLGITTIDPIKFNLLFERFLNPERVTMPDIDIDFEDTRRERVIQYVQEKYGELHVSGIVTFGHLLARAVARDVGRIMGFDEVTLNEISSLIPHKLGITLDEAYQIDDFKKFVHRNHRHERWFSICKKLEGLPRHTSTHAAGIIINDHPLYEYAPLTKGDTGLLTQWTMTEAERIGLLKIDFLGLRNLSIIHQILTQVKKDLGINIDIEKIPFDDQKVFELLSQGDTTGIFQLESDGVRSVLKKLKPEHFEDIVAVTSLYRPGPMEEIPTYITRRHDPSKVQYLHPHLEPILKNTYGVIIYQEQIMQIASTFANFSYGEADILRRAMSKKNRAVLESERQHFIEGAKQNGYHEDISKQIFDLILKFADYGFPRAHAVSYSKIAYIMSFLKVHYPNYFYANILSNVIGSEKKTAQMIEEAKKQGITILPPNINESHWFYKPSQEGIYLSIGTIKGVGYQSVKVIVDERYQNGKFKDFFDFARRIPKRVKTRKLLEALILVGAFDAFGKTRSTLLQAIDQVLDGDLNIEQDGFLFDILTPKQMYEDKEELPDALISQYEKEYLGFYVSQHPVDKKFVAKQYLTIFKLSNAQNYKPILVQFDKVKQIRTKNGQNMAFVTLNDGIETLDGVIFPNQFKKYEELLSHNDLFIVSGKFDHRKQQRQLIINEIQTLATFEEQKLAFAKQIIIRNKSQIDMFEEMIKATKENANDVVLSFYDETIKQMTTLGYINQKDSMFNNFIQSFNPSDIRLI
In short: as §1

[7] = read-out: E. coli DnaE IC50 (converted)
[8] = read-out: S. aureus DnaE IC50 (converted)

T1 sequence (P10443 whole entry, the tested form may be a part): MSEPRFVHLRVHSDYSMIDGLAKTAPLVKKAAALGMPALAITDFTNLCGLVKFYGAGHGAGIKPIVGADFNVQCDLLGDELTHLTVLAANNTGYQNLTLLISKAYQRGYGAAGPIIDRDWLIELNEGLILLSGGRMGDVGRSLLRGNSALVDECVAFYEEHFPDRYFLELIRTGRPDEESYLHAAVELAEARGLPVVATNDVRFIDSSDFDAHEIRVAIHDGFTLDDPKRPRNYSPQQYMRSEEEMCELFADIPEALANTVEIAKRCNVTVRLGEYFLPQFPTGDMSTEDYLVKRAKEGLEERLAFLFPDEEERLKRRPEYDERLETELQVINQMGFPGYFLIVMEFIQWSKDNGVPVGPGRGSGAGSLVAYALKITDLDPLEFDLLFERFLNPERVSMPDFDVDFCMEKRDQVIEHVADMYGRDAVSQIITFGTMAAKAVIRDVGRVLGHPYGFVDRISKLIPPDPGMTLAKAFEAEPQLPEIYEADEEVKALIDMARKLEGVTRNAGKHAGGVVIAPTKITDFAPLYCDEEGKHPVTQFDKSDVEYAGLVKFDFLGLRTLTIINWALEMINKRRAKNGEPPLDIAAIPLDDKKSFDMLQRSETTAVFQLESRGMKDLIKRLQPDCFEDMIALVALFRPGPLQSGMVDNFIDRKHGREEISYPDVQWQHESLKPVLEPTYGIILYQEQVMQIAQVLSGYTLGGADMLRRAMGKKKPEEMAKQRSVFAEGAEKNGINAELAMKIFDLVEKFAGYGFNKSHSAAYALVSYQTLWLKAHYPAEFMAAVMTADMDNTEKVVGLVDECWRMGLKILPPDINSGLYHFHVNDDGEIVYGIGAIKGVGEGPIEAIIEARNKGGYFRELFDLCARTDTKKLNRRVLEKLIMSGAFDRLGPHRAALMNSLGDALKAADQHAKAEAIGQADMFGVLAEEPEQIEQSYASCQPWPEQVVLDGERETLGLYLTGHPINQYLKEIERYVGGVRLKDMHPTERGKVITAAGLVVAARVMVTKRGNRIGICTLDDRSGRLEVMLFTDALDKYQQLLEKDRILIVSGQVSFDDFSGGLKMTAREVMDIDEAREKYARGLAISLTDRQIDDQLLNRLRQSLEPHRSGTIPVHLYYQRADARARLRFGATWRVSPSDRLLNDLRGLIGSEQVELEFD

SMILES	S. aureus COL (MIC) [1] [µg/mL]	E. coli DnaE IC50 [2] [µg/mL]	P. aeruginosa MB5890 efflux-del (MIC) [3] [µg/mL]	E. coli LS883 tolC (MIC) [4] [µg/mL]	S. pneumoniae MB2883 (MIC) [5] [µg/mL]	S. aureus DnaE IC50 [6] [µg/mL]	MIC [1] [µg/mL]	IC50 [2, 7] [nM]	MIC [3] [µg/mL]	MIC [4] [µg/mL]	MIC [5] [µg/mL]	IC50 ([6]; S. aureus DnaE IC50) [nM]	IC50 ([6]; read-out: S. aureus DnaE IC50) [nM]	IC50 ([2]; E. coli DnaE IC50) [nM]	IC50 [6, 8] [nM]
CO[C@H]1C[C@H]2C=CC3C4[C@H](O)[C@@H](C)[C@@H](OC(=O)c5ccc[nH]5)[C@@H]3O[C@]42/C(C)=C/[C@@H](C)[C@@H]([C@@H](C)OC(=O)C(=O)NCc2ccncc2)OC1=O [Example 115]	0.5	9	8	0.5	>64	<0.006									
CO[C@H]1C[C@H]2C=CC3C4[C@H](O)[C@@H](C)[C@@H](OC(=O)c5ccc[nH]5)[C@@H]3O[C@]42/C(C)=C/[C@@H](C)[C@@H]([C@@H](C)OC(=O)C(=O)OCCN2CCN(C)CC2)OC1=O.O=C(O)C(F)(F)F [Example 210]							1	4950	32	1	> 128	< 7.25			
CO[C@H]1C[C@H]2C=C[C@H]3[C@H]4O[C@]2(/C(C)=C/[C@@H](C)[C@@H]([C@@H](C)OC(=O)NC2CC2)OC1=O)[C@@H]3[C@H](O)[C@@H](C)[C@H]4OC(=O)c1ccc[nH]1 [Example 6]							8	75200	> 128	4 (≈ 6.68 µM)	128 (≈ 214 µM)	18.4			
CO[C@H]1CC2C=C[C@H]3[C@H]4O[C@]2(/C(C)=C/[C@@H](C)[C@@H](C(C)O)OC1=O)[C@@H]3[C@H](O)[C@@H](C)[C@H]4OC(=O)c1ccc[nH]1 (stereo partly drawn) [Nar, Nargenicin]	0.25 to 0.5		8	0.25 to 0.5	>64			776 to 5040					0.388 to 11.6		
CO[C@H]1C[C@H]2C=C[C@H]3[C@H]4O[C@]2(/C(C)=C/[C@@H](C)[C@@H]([C@@H](C)OC(=O)OCC(C)(N)CO)OC1=O)[C@@H]3[C@H](O)[C@@H](C)[C@H]4OC(=O)c1ccc[nH]1.O=C(O)C(F)(F)F (stereo partly drawn) [Example 28]							2	> 131000	32	2	128	~6.57			
CO[C@H]1C[C@H]2C=C[C@H]3[C@H]4O[C@]2(/C(C)=C/[C@@H](C)[C@@H]([C@@H](C)O)OC1=O)[C@@H]3[C@H](O)C(C)[C@@H]4NCCN1CCCC1.O=C(O)C(F)(F)F (stereo partly drawn) [Example 157]							> 128		> 128	> 128	> 128			> 158000	3320
CO[C@H]1C[C@H]2C=C[C@H]3[C@H]4O[C@]2(/C(C)=C/[C@@H](C)[C@@H]([C@@H](C)O)OC1=O)[C@@H]3[C@H](O)[C@@H](C)[C@H]4OC(=O)c1ccc(Cl)[nH]1 [Example 44]							16	49100	128 (≈ 233 µM)	8 (≈ 14.5 µM)	64 (≈ 116 µM)	< 10.9			
C=C1C[C@H]2[C@H]3O[C@]4(/C(C)=C/[C@@H](C)[C@@H]([C@@H](C)O)OC(=O)[C@@H](OC)C[C@@H]14)[C@@H]2[C@H](O)[C@@H](C)[C@H]3OC(=O)c1ccc[nH]1 [Example 199]							32	142000	> 128	16 (≈ 30.2 µM)	> 128	28.3			
CO[C@H]1C[C@H]2C=C[C@H]3[C@H]4O[C@]2(/C(C)=C/[C@@H](C)[C@@H]([C@@H](C)OC(=O)NCc2ccccc2)OC1=O)[C@@H]3[C@H](O)[C@@H](C)[C@H]4OC(=O)c1ccc[nH]1 [Example 10]							8	> 154000	> 128	> 128	> 128	30.8			
CO[C@H]1C[C@H]2C=CC3C4[C@H](O)[C@@H](C)[C@@H](OC(=O)c5ccc[nH]5)[C@@H]3O[C@]42/C(C)=C/[C@@H](C)[C@@H]([C@@H](C)OC(=O)C(=O)OCCCN(C)C)OC1=O.O=C(O)C(F)(F)F [Example 206]							4	1910	64	4	> 128	< 7.63			
CO[C@H]1C[C@H]2[C@@H]3O[C@@H]3[C@H]3[C@H]4O[C@]2(/C(C)=C/[C@@H](C)[C@@H]([C@@H](C)O)OC1=O)[C@@H]3[C@H](O)[C@@H](C)[C@H]4OC(=O)c1ccc[nH]1 [Example 160, (1aS, 1bS,3S,6S,7R,9aS,9bS,10R,11R,12R,13R,13aS,13bR,E)-10-hydroxy-6-((R)-1-hydroxyethyl)-3-methoxy-7,9,11-trimethyl-4-oxo-1 a,lb,2,3,4,6,7,9b,10,11,12,13,13a,13b-tetradecahydro-9a,13-epoxyoxireno[2′,3′:3,4]naphtho[2,1-e]oxecin-12-yl 1H-pyrrole-2-carboxylate]							> 8		> 128	> 8	> 128			> 188000	4140
COC1CC2C=CC3C4OC2(C(C)=CC(C)C(C(C)OC(=O)OCCN(CCO)CCO)OC1=O)C3C(O)C(C)C4OC(=O)c1ccc[nH]1 (stereo not drawn) [Example 32]							2	> 145000	64 (≈ 92.6 µM)	2 (≈ 2.9 µM)	> 128	~6.51			
CO[C@H]1C[C@H]2C=C[C@H]3[C@H]4O[C@]2(/C(C)=C/[C@@H](C)[C@@H]([C@@H](C)OC(=O)OCCO)OC1=O)[C@@H]3[C@H](O)[C@@H](C)[C@H]4OC(=O)c1ccc[nH]1 [Example 30]							0.5	116000	16 (≈ 26.5 µM)	1 (≈ 1.66 µM)	64 (≈ 106 µM)	< 9.94			
CO[C@H]1C[C@H]2C=CC3C4[C@H](O)[C@@H](C)[C@@H](OC(=O)c5ccc[nH]5)[C@@H]3O[C@]42/C(C)=C/[C@@H](C)[C@@H]([C@@H](C)OC(=O)C(=O)OCc2ccccc2)OC1=O [Example 211]							0.5	2950	16 (≈ 23.6 µM)	< 0.125	> 128	< 8.85			
